# Earlier results in patent US20110184060A1, “ORAL DOSAGE FORMS HAVING A HIGH LOADING OF A TRANEXAMIC ACID PRODRUG” (XenoPort, Inc., priority 2010, published 2011).
# Like-named read-outs stand apart in the source and are kept apart here.
# How the values were obtained:
# [1] = statement in words, no data given
# [2] = not given; remark: listed apart in the source
# [3] = human subjects, prodrug
smiles,measurement,setting,value
"CC(OC(=O)NC[C@H]1CC[C@H](C(=O)O)CC1)OC(=O)C(C)C (stereo partly drawn) [Compound (1), 4-({[(2-methylpropanoyloxy)ethoxy]carbonylamino}methyl)cyclohexanecarboxylic acid]",oral bioavailability of tranexamic acid,[1],high oral bioavailability of tranexamic acid
"NC[C@H]1CC[C@H](C(=O)O)CC1 [tranexamic acid, trans-4-(aminomethyl)-cyclohexanecarboxylic acid]",reduction of post-operative bleeding,"cardiopulmonary bypass surgery, prophylactic administration of lysine analogs such as tranexamic acid",30-40%
same,reduction of total blood loss,"subjects undergoing total knee arthroplasty, prophylactic administration",up to 50%
same,oral bioavailability,[2]; oral tranexamic acid,about 30%
same,terminal elimination half life,[2]; tranexamic acid,about 2 hours
"CCOC(=O)OC(C)OC(=O)[C@H]1CC[C@H](CN)CC1 (relative stereo) [Kabi 2161, 1-(ethoxycarbonyl)oxyethyl trans-4-(aminomethyl)-cyclohexane carboxylate]",oral bioavailability of tranexamic acid,[3],improved oral bioavailability of tranexamic acid
